Columns and labels:
[1] = Biodistribution of radioactive gold clusters (no antibody) in healthy mice; format: in vivo
Method: Typically the blood had 2.8%, the spleen 0.4%, the stomach 0.4%, kidney 5.1%, bone 2.5%, gut and feces 3.3%, liver 19.3% and, carcass 13.7% of the injected amount after 24 hours. These numbers are % counts per organ normalized to 25 gm mice.

[2] = Thermal stability of gold clusters; format: physicochemical; details: 100° C.
[3] = test system: human colon carcinoma cells (LS180)
Method: (§1) The 17-1A Fab' fragment-(radioactive gold)-undecagold cluster conjugate was incubated in vitro with tumor cells (LS180- a cell culture of human colon carcinoma) and non tumor cells (WM164 - a cell culture of melanoma as control) and the radioactivity of the gold was used to assay binding.
(§2) bound to cells after incubation and washing.
(§3) entry is an average (+ s.d.) of 2 samples.

[4] = Biodistribution of radioactive gold clusters (no antibody) in healthy mice; format: in vivo; details: after 2 hours, tail vein
[5] = Toxicity of radioactive gold clusters (no antibody) in healthy mice; details: tail vein; 7.8, 12.6 or 24 μg gold metal; 2 or 24 hours
Method: The folowing in vivo tests in mice assess both biodistribution with time and toxicity.
Various doses of gold cluster were injected into the tail vein of healthy mice: cluster containing 7.8 μg of gold metal into one group, 12.6 μg into another and 24 μg into the third. Each group consisted of 6 animals, for a total of 18 mice. Three mice from each group were sacrificed after 2 hours and the remaining 3 were terminated after 24 hours in order to determine the biodistribution in different organs as a function of time.

[6] = Stability of photocrosslinked Au13 cluster to KCN (optical density at 346 and 420 nm); format: physicochemical; details: 100 μl of cluster (1 μMolar) with 20 μl of 0.1M KCN
Method: Two nmol of the Au13 [P(PhCONH(CH2)3 NH2)3 ]10 cluster in 0.1M sodium citrate buffer, pH 5, was incubated with the crosslinking reagent, N-hydroxysuccinimidyl-4-azidosalicylic acid (NHS-ASA). A range of amounts was tried, from 1 to 100-fold molar excess over the number of amines in the cluster. Incubation was carried out in the dark for 30 min. The solution was exposed to UV light (Ultraviolet Products Inc., Lamp R-52) at 4 cm for 5 min. The product was purified on a 0.66×50 cm column of GH-25 (Amicon) using the buffer 0.36M triethylammonium bicarbonate/70% methanol in water. Alternately, these last two steps were reversed so that unreacted crosslinker was removed on the column before UV treatment.
The crosslinked cluster stability was quantitated by observing the decrease in optical density at 346 and 420 nm in a spectrophotometer at regular intervals after adding KCN or glutathione. One hundred μl of cluster (1 μMolar) was mixed with 20 μl of 0.1M KCN. […] Noncrosslinked cluster was completely destroyed after 2 min under these conditions.
A longer photocrosslinking reagent was also used, sulfosuccinimidyl 6-(4'-azido-2'-nitrophenylamino) hexanoate (sulfo-SANPAH). The procedure was identical to that described above. For 100-fold initial excess of crosslinker, the resulting cluster product was 100% stable to KCN indefinitely, whereas uncrosslinked cluster was completely destroyed in 2 min.

[7] = Chemical stability of derivatized Au13 cluster
[8] = 24 hours, % counts per organ normalized to 25 gm mice

Method for melanoma cells (WM164): as §1, §2, §3

Substance	blood, % of the injected amount [1, 8]	bone, % of the injected amount [1, 8]	carcass, % of the injected amount [1, 8]	gut and feces, % of the injected amount [1, 8]	kidney, % of the injected amount [1, 8]	liver, % of the injected amount [1, 8]	spleen, % of the injected amount [1, 8]	stomach, % of the injected amount [1, 8]	clusters excreted ([1]; after 24 hours, tail vein)	stability at 100° C. [2]	% bound to tumor cells (human colon carcinoma) [3]	% bound to control cells (melanoma) (melanoma cells (WM164))	clusters excreted [4]	death or unusual reaction during or following injection [5]	time to complete destruction in KCN [6]	stability upon addition of 1M KCN [7]
Au11 [P(C6 H4 CONHR)3 ]7^3+ where 20 R groups are CH3 and one is (CH2)3 N(CO2)(CH2)	2.8%	2.5%	13.7%	3.3%	5.1%	19.3%	0.4%	0.4%	56%	perfectly stable	0.54 ± 0.04%	0.51 ± 0.06%	44%	no mice died or reacted unusually	–	–
Au13 [P(PhCONH(CH2)3 NH2)3 ]10 [derivatized Au13 cluster]	–	–	–	–	–	–	–	–	–	–	–	–	–	–	2 min	degraded
